# Reference: the NIST ThermoML archive (doi:10.1021/je500513b)
# ± gives the expanded uncertainty stated by the source.
# Assay: mn = molality of the nth substance listed, in mol/kg
# Conditions: 100 kPa, Liquid, Mettler Toledo inLab 710
compound,measurement,setting,value
CCCCCCCCCCCCCC[N+](C)(C)CCC[N+](C)(C)CCCCCCCCCCCCCC.[Br-].[Br-] + O,electrical conductivity,"308.15 K, m1 = 0.000192",0.00448 ± 0.00025 S/m
same,electrical conductivity,"308.15 K, m1 = 0.0002",0.00455 ± 0.00024 S/m
same,electrical conductivity,"308.15 K, m1 = 0.000208",0.00464 ± 0.00022 S/m
same,electrical conductivity,"308.15 K, m1 = 0.000217",0.00471 ± 0.00019 S/m
same,electrical conductivity,"308.15 K, m1 = 0.000227",0.00479 ± 0.00018 S/m
same,electrical conductivity,"308.15 K, m1 = 0.000238",0.00488 ± 0.00029 S/m
same,electrical conductivity,"308.15 K, m1 = 0.00025",0.00498 ± 0.00029 S/m
same,electrical conductivity,"313.15 K, m1 = 9.3e-05",0.00309 ± 0.00062 S/m
same,electrical conductivity,"313.15 K, m1 = 9.8e-05",0.00324 ± 0.00061 S/m
same,electrical conductivity,"313.15 K, m1 = 0.000104",0.00343 ± 0.00051 S/m
same,electrical conductivity,"313.15 K, m1 = 0.000111",0.00364 ± 0.00045 S/m
same,electrical conductivity,"313.15 K, m1 = 0.000119",0.00382 ± 0.00046 S/m
same,electrical conductivity,"313.15 K, m1 = 0.000125",0.00391 ± 0.00043 S/m
same,electrical conductivity,"313.15 K, m1 = 0.000132",0.00407 ± 0.00042 S/m
same,electrical conductivity,"313.15 K, m1 = 0.000139",0.00423 ± 0.00042 S/m
same,electrical conductivity,"313.15 K, m1 = 0.000147",0.00441 ± 0.00044 S/m
same,electrical conductivity,"313.15 K, m1 = 0.000156",0.00463 ± 0.00042 S/m
same,electrical conductivity,"313.15 K, m1 = 0.000164",0.00479 ± 0.00041 S/m
same,electrical conductivity,"313.15 K, m1 = 0.000172",0.00497 ± 0.00041 S/m
same,electrical conductivity,"313.15 K, m1 = 0.000182",0.00513 ± 0.00035 S/m
same,electrical conductivity,"313.15 K, m1 = 0.000192",0.00532 ± 0.00029 S/m
same,electrical conductivity,"313.15 K, m1 = 0.0002",0.00542 ± 0.00028 S/m
same,electrical conductivity,"313.15 K, m1 = 0.000208",0.00552 ± 0.00025 S/m
same,electrical conductivity,"313.15 K, m1 = 0.000217",0.00564 ± 0.00022 S/m
same,electrical conductivity,"313.15 K, m1 = 0.000227",0.00574 ± 0.00022 S/m
same,electrical conductivity,"313.15 K, m1 = 0.000238",0.00582 ± 0.00016 S/m
same,electrical conductivity,"313.15 K, m1 = 0.00025",0.00594 ± 0.00017 S/m
same,electrical conductivity,"318.15 K, m1 = 9.3e-05",0.00331 ± 0.00057 S/m
same,electrical conductivity,"318.15 K, m1 = 9.8e-05",0.00345 ± 0.00056 S/m
same,electrical conductivity,"318.15 K, m1 = 0.000104",0.00361 ± 0.00056 S/m
same,electrical conductivity,"318.15 K, m1 = 0.000111",0.00382 ± 0.00051 S/m
same,electrical conductivity,"318.15 K, m1 = 0.000119",0.00404 ± 0.00053 S/m
same,electrical conductivity,"318.15 K, m1 = 0.000125",0.0042 ± 0.00054 S/m
same,electrical conductivity,"318.15 K, m1 = 0.000132",0.00435 ± 0.00055 S/m
same,electrical conductivity,"318.15 K, m1 = 0.000139",0.00454 ± 0.00055 S/m
same,electrical conductivity,"318.15 K, m1 = 0.000147",0.00478 ± 0.00055 S/m
same,electrical conductivity,"318.15 K, m1 = 0.000156",0.00506 ± 0.00055 S/m
same,electrical conductivity,"318.15 K, m1 = 0.000164",0.00528 ± 0.00055 S/m
same,electrical conductivity,"318.15 K, m1 = 0.000172",0.0055 ± 0.00054 S/m
same,electrical conductivity,"318.15 K, m1 = 0.000182",0.00572 ± 0.00047 S/m
same,electrical conductivity,"318.15 K, m1 = 0.000192",0.00599 ± 0.0004 S/m
same,electrical conductivity,"318.15 K, m1 = 0.0002",0.00614 ± 0.00039 S/m
same,electrical conductivity,"318.15 K, m1 = 0.000208",0.00628 ± 0.00035 S/m
same,electrical conductivity,"318.15 K, m1 = 0.000217",0.00642 ± 0.00031 S/m
same,electrical conductivity,"318.15 K, m1 = 0.000227",0.00656 ± 0.00029 S/m
same,electrical conductivity,"318.15 K, m1 = 0.000238",0.0067 ± 0.00021 S/m
same,electrical conductivity,"318.15 K, m1 = 0.00025",0.00684 ± 0.0002 S/m
same,electrical conductivity,"323.15 K, m1 = 9.3e-05",0.00348 ± 0.00057 S/m
same,electrical conductivity,"323.15 K, m1 = 9.8e-05",0.00363 ± 0.00056 S/m
same,electrical conductivity,"323.15 K, m1 = 0.000104",0.00382 ± 0.00056 S/m
same,electrical conductivity,"323.15 K, m1 = 0.000111",0.004 ± 0.00059 S/m
same,electrical conductivity,"323.15 K, m1 = 0.000119",0.00422 ± 0.0006 S/m
same,electrical conductivity,"323.15 K, m1 = 0.000125",0.00441 ± 0.00061 S/m
same,electrical conductivity,"323.15 K, m1 = 0.000132",0.00462 ± 0.00063 S/m
same,electrical conductivity,"323.15 K, m1 = 0.000139",0.00486 ± 0.00064 S/m
same,electrical conductivity,"323.15 K, m1 = 0.000147",0.00512 ± 0.00065 S/m
same,electrical conductivity,"323.15 K, m1 = 0.000156",0.00542 ± 0.00063 S/m
same,electrical conductivity,"323.15 K, m1 = 0.000164",0.00565 ± 0.00063 S/m
same,electrical conductivity,"323.15 K, m1 = 0.000172",0.00593 ± 0.00062 S/m
same,electrical conductivity,"323.15 K, m1 = 0.000182",0.0062 ± 0.00056 S/m
same,electrical conductivity,"323.15 K, m1 = 0.000192",0.00651 ± 0.00049 S/m
same,electrical conductivity,"323.15 K, m1 = 0.0002",0.00669 ± 0.00047 S/m
same,electrical conductivity,"323.15 K, m1 = 0.000208",0.00688 ± 0.00042 S/m
same,electrical conductivity,"323.15 K, m1 = 0.000217",0.00704 ± 0.00038 S/m
same,electrical conductivity,"323.15 K, m1 = 0.000227",0.0072 ± 0.00035 S/m
same,electrical conductivity,"323.15 K, m1 = 0.000238",0.00737 ± 0.00032 S/m
same,electrical conductivity,"323.15 K, m1 = 0.00025",0.00754 ± 0.00031 S/m
